Data published in ChEMBL document CHEMBL6134901 (J Med Chem, 2025).
Values after ≈ are worked out from the molar mass of the structure shown. Active and inactive are the calls of the source. The rule behind the calls is not given here.

Tests used:
Bacteria [1] = assay: Binding affinity to bacterial CspC assessed as dissociation constant by MST assay
[2] = Cmax in feces of Golden Syrian hamster at 5 mg/kg, po bid measured for 5 days; type: ADME, organism-based, Mesocricetus auratus; conditions: faeces, time 5 day
Veillonella = assay: Antibacterial activity against Veillonella sp. HM-49; type: functional
Klebsiella aerogenes = assay: Antibacterial activity against Enterobacter aerogenes ATCC 35029; type: functional
[3] = Binding affinity to bacterial SleC assessed as dissociation constant by MST assay; set-up: species or system Bacteria
Bacteria [4] = assay: (§1) Binding affinity to bacterial CspA assessed as dissociation constant by MST assay
Staphylococcus aureus [5] = assay: Inhibition of Staphylococcus aureus COL PBP1 at 5 ug/ml measured for 24 hrs by absorbance based assay; conditions: dose 5.0 µg/ml
[6] = Terminal half life in ICR mouse at 30 mg/kg, po measured for 1 to 24 hrs by UPLC analysis; type: ADME, organism-based; conditions: in vivo, time 1-24 hrs, read-out: beta t1/2 (converted)
[7] = Binding affinity to bacterial pro-SleC assessed as dissociation constant by MST assay; set-up: species or system Bacteria
Bacteria [8] = assay: (§2) Binding affinity to bacterial GerS assessed as dissociation constant by MST assay
Escherichia coli = assay: Antibacterial activity against Escherichia coli ATCC 25922; type: functional
Clostridioides difficile [9] = assay: Antibacterial activity against Clostridium difficile ATTC43255 assessed as inhibition of vegetative cells; type: functional, organism-based
Eubacterium sp. = assay: Antibacterial activity against Eubacterium sp. HM-178; type: functional
Pseudomonas aeruginosa = assay: Antibacterial activity against Pseudomonas aeruginosa ATCC 27853; type: functional
[10] = Drug concentration in kidney of Golden Syrian hamster at 5 mg/kg, po bid measured after 8 hrs; type: ADME, organism-based, Mesocricetus auratus; conditions: read-out: Ct
Clostridioides difficile [11] = assay: Antibacterial activity against Clostridium difficile ATTC43255 assessed as spore germination inhibition incubated for 60 mins by spectrometry; type: functional, organism-based; conditions: for IC50: ATTC43255, 1 h
[12] = (§3) Binding affinity to bacterial cwID assessed as dissociation constant by MST assay; set-up: species or system Bacteria
[13] = Binding affinity to bacterial CspB assessed as dissociation constant by MST assay; set-up: species or system Bacteria
Clostridioides difficile [14] = assay: Antibacterial activity against metronidazole-resistant Clostridium difficile […] clinical isolate; type: functional
[15] = AUC (0 to 24 hrs) in ICR mouse at 30 mg/kg, po measured for 1 to 24 hrs by UPLC analysis; type: ADME, organism-based; conditions: in vivo, time 1-24 hrs
Clostridioides difficile [16] = assay: Antibacterial activity against Clostridium difficile ATTC43255 assessed as spore germination inhibition at 45 uM incubated for 60 mins by spectrometry relative to control; type: functional; conditions: ATTC43255, 1 h
Clostridioides difficile [17] = assay: Antibacterial activity against Clostridium difficile BAA1870 assessed as spore germination inhibition; type: functional, organism-based
[18] = system: Staphylococcus haemolyticus; assay: Antibacterial activity against Staphylococcus haemolyticus ATCC 29970; type: functional
Staphylococcus aureus [19] = assay: Inhibition of Staphylococcus aureus COL PBP2 at 5 ug/ml measured for 24 hrs by absorbance based assay; conditions: dose 5.0 µg/ml
[20] = Cytotoxicity against human HepG2 cells incubated for 24 hrs by XTT assay; type: toxicity, cell-based; conditions: read-out: LD50
[21] = Cmax in ICR mouse at 30 mg/kg, po measured for 1 to 24 hrs by UPLC analysis; type: ADME, organism-based; conditions: in vivo, time 1-24 hrs
Clostridioides difficile [22] = assay: Inhibition of spore cortex degradation in Clostridium difficile assessed as greenish-blue spheres at 50 uM by Wirtz-Conklin staining based analysis; type: functional, organism-based
[23] = system: Limosilactobacillus reuteri; assay: Antibacterial activity against vancomycin-susceptible Lactobacillus reuteri HM-102 clinical isolate; type: functional
[24] = Drug concentration in liver of Golden Syrian hamster at 5 mg/kg, po bid measured after 8 hrs; type: ADME, organism-based, Mesocricetus auratus; conditions: read-out: Ct
Bacteroides fragilis = assay: Antibacterial activity against Bacteroides fragilis HM-709; type: functional
Klebsiella pneumoniae = assay: Antibacterial activity against Klebsiella pneumoniae ATCC 700603; type: functional
[25] = Drug concentration in brain of Golden Syrian hamster at 5 mg/kg, po bid measured after 8 hrs; type: ADME, organism-based, Mesocricetus auratus; conditions: read-out: Ct
Enterococcus faecalis = assay: Antibacterial activity against Enterococcus faecalis ATCC 29212; type: functional
Clostridioides difficile [26] = assay: Post-antibiotic effect in Clostridium difficile ATTC43255 assessed as spore germination inhibition at 60 uM incubated for 1 hr followed by fresh medium replacement without compound measured up to 8 hrs; type: functional, organism-based
Acinetobacter baumannii = assay: Antibacterial activity against Acinetobacter baumannii ATCC 17961; type: functional
Clostridioides difficile [27] = assay: Antibacterial activity against Clostridium difficile ATTC43255 assessed as inhibition of vegetative cells in presence of vancomycin; type: functional, organism-based
[28] = Drug uptake in blood of ICR mouse assessed as drug absorption from intestines at 30 mg/kg, po measured for 1 to 24 hrs by UPLC analysis; type: ADME, organism-based; conditions: in vivo, time 1-24 hrs
[29] = Drug concentration in feces of ICR mouse at 30 mg/kg, po measured after 8 hrs by UPLC analysis; type: ADME, organism-based; conditions: faeces, read-out: Ct
[30] = Drug concentration in feces of ICR mouse at 30 mg/kg, po measured after 24 hrs by UPLC analysis; type: ADME, organism-based; conditions: in vivo
Bacillus subtilis = assay: Inhibition of Bacillus subtilis sacculi-derived SleC
Bacteria [31] = assay: (§4) Binding affinity to bacterial prepro-SleC assessed as dissociation constant by MST assay
Clostridioides difficile [32] = assay: Antibacterial activity against fidaxomicin-resistant Clostridium difficile RMA23691 clinical isolate; type: functional
Bifidobacterium longum = assay: Antibacterial activity against Bifidobacterium longum HM-846; type: functional
[33] = as §1; set-up: species or system Bacteria
Bacillus cereus = assay: Antibacterial activity against Bacillus cereus ATCC 13061; type: functional
Staphylococcus aureus [34] = assay: Antibacterial activity against Staphylococcus aureus ATCC 29213; type: functional
Staphylococcus aureus [35] = assay: Antibacterial activity against Staphylococcus aureus NRS100; type: functional
[36] = as §2; set-up: species or system Bacteria
[37] = Binding affinity to N-terminal His-tagged full-length Clostridium difficile SleC extracted from Escherichia coli LOBSTR-RIL assessed as dissociation constant by MST assay; set-up: species or system Clostridioides difficile
Clostridioides difficile [38] = assay: Antibacterial activity against Clostridium difficile RMA23828; type: functional
Bacteria [39] = assay: as §3
Clostridioides difficile [40] = assay: Antibacterial activity against Clostridium difficile RMA26675; type: functional
Bacteria [41] = assay: Binding affinity to bacterial pdaA assessed as dissociation constant by MST assay
Enterococcus faecium [42] = assay: Antibacterial activity against vancomycin-susceptible Enterococcus faecium 119-39A; type: functional
Fusobacterium nucleatum = assay: Antibacterial activity against methicillin/oxacillin/tetracycline-resistant mecA-positive Fusobacterium nucleatum HM-992; type: functional
Lactobacillus gasseri = assay: Antibacterial activity against Lactobacillus gasseri HM-644; type: functional
Enterococcus faecium [43] = assay: Antibacterial activity against vancomycin-resistant Enterococcus faecium 106 clinical isolate; type: functional
Staphylococcus aureus [44] = assay: Antibacterial activity against Staphylococcus aureus NRS119; type: functional
[45] = system: Staphylococcus epidermidis; assay: Antibacterial activity against Staphylococcus epidermidis ATCC 35547; type: functional
Staphylococcus aureus [46] = assay: Antibacterial activity against vancomycin-resistant Staphylococcus aureus VRS1 clinical isolate; type: functional
[47] = as §4; set-up: species or system Bacteria

Structure (SMILES): Cl.NCc1ccc(-c2nc(-c3ccnc(Oc4ccc(C(F)(F)F)cc4)c3)no2)cc1
- Activity (Bacteria [1]): inactive
- Cmax [2]: ~4000 ng/g
- MIC (Veillonella): > 128 µg/mL
- MIC (Klebsiella aerogenes): > 128 µg/mL
- Kd [3]: 12 µM
- Activity (Bacteria [4]): inactive
- inhibition (Staphylococcus aureus [5]): Active
- half-life [6]: 6.3 h
- Kd [7]: 16 µM
- Activity (Bacteria [8]): inactive
- MIC (Escherichia coli): > 128 µg/mL
- IC50 (Clostridioides difficile [9]): 46.2 µM
- MIC (Eubacterium sp.): 16 µg/mL
- MIC (Pseudomonas aeruginosa): > 128 µg/mL
- concentration at 8 h [10]: 56000 ng/g
- inhibition (Clostridioides difficile [11]): Dose-dependent-effect
- IC50 (Clostridioides difficile [11]): 14 µM
- Kd [12]: 54 µM
- Kd [13]: 8 µM
- MIC (Clostridioides difficile [14]): 16 µg/mL
- AUC(0-t) [15]: 17000 ng·h/mL
- inhibition at 45 µM (Clostridioides difficile [16]): 84%
- IC50 (Clostridioides difficile [17]): 13 µM
- MIC [18]: 8 µg/mL
- inhibition (Staphylococcus aureus [19]): Active
- CC50 at 24 h [20]: 51 µg/mL
- Cmax [21]: 1440 ng/mL
- inhibition (Clostridioides difficile [22]): Active
- MIC [23]: 32 µg/mL
- concentration at 8 h [24]: 5600 ng/g
- MIC (Bacteroides fragilis): 32 µg/mL
- MIC (Klebsiella pneumoniae): > 128 µg/mL
- concentration at 8 h [25]: 15000 ng/g
- MIC (Enterococcus faecalis): 4 µg/mL
- inhibition (Clostridioides difficile [26]): Active
- MIC (Acinetobacter baumannii): > 128 µg/mL
- IC50 (Clostridioides difficile [27]): 22.7 µM
- Drug uptake [28]: Active
- concentration at 8 h [29]: 11000 ng/g
- Ct [30]: Below_limit_of_detection
- inhibition (Bacillus subtilis): Active
- Activity (Bacteria [31]): inactive

Structure (SMILES): Oc1ccc(-c2nc(-c3ccc(OC4CCCC4)cc3)no2)cc1
- MIC (Clostridioides difficile [32]): 4 µg/mL (≈ 12.4 µM)
- MIC (Veillonella): > 128 µg/mL
- MIC (Bifidobacterium longum): 1 µg/mL (≈ 3.1 µM)
- MIC (Klebsiella aerogenes): > 128 µg/mL
- Kd [33]: > 200 µM
- MIC (Bacillus cereus): 2 µg/mL (≈ 6.2 µM)
- MIC (Staphylococcus aureus [34]): 2 µg/mL (≈ 6.2 µM)
- Kd [7]: 91 µM
- MIC (Staphylococcus aureus [35]): 2 µg/mL (≈ 6.2 µM)
- Kd [36]: > 200 µM
- MIC (Escherichia coli): > 128 µg/mL
- MIC (Eubacterium sp.): 0.5 µg/mL (≈ 1.55 µM)
- MIC (Pseudomonas aeruginosa): > 128 µg/mL
- Kd [37]: > 200 µM
- IC50 (Clostridioides difficile [11]): 74 µM
- MIC (Clostridioides difficile [38]): 4 µg/mL (≈ 12.4 µM)
- Activity (Bacteria [39]): inactive
- Kd [13]: 75 µM
- MIC (Clostridioides difficile [14]): 2 µg/mL (≈ 6.2 µM)
- MIC (Clostridioides difficile [40]): 4 µg/mL (≈ 12.4 µM)
- inhibition at 45 µM (Clostridioides difficile [16]): 26%
- MIC [18]: 2 µg/mL (≈ 6.2 µM)
- Activity (Bacteria [41]): inactive
- MIC (Enterococcus faecium [42]): 2 µg/mL (≈ 6.2 µM)
- MIC (Fusobacterium nucleatum): 2 µg/mL (≈ 6.2 µM)
- CC50 at 24 h [20]: 22 µg/mL (≈ 68.2 µM)
- MIC [23]: > 128 µg/mL
- MIC (Bacteroides fragilis): 2 µg/mL (≈ 6.2 µM)
- MIC (Klebsiella pneumoniae): > 128 µg/mL
- MIC (Lactobacillus gasseri): > 128 µg/mL
- MIC (Enterococcus faecalis): 4 µg/mL (≈ 12.4 µM)
- MIC (Enterococcus faecium [43]): 2 µg/mL (≈ 6.2 µM)
- MIC (Staphylococcus aureus [44]): 2 µg/mL (≈ 6.2 µM)
- MIC [45]: 2 µg/mL (≈ 6.2 µM)
- MIC (Acinetobacter baumannii): > 128 µg/mL
- MIC (Staphylococcus aureus [46]): 2 µg/mL (≈ 6.2 µM)
- Kd [47]: 4.3 µM
